pKi: −log10 of the molar value.
Assays:
[1] = test system: Avena HPPD; test: HPPD activity assay; type: biochemical, Avena sativa; conditions: HPPD enzyme Avena
Procedure: (§1) The activity assay for HPPD is based on the analysis of homogentisic acid by reversed phase HPLC.
(§2) The assay mixture can contain 150 mM potassium phosphate buffer pH 7.0, 50 mM L-ascorbic acid, 100 μM Catalase (Sigma-Aldrich), 1 μM FeSO4 and 0.2 units of purified HPPD enzyme in a total volume of 505 μl. 1 unit is defined as the amount of enzyme that is required to produce 1 nmol of HGA per minute at 20° C.
(§3) The reaction is allowed to proceed for 45 min at room temperature. The reaction is stopped by the addition of 50 μl of 4.5 M phosphoric acid. The sample is filtered using a […] pore size PVDF filtration device. 5 μl of the cleared sample is analyzed on an UPLC HSS T3 column (particle size 1.8 μm, dimensions 2, 1×50 mm; Waters) by isocratic elution using 90% 20 mM NaH2PO4 pH 2.2, 10% methanol (v/v).
(§4) HGA is detected electrochemically at 750 mV (mode: DC; polarity: positive) and quantified by integrating peak areas (Empower software; Waters).
(§5) Inhibitors are dissolved in DMSO (dimethylsulfoxide) to a concentration of 0.5 mM. From this stock solution serial five-fold dilutions are prepared in DMSO, which are used in the assay. The respective inhibitor solution accounts for 1% of the assay volume. Thus, final inhibitor concentrations range from 5 μM to 320 pM, respectively. Activities are normalized by setting the uninhibited enzyme activity to 100%. IC50 values are calculated using non-linear regression.
(§6) Using methods which are described in the above examples or well known in the art, purified recombinant wild-type HPPD enzymes are characterized with respect to their kinetic properties and sensitivity towards HPPD inhibiting herbicides. Apparent michaelis constants (Km) and maximal reaction velocities (Vmax) are calculated by non-linear regression with the software GraphPad Prism 5 (GraphPad Software, La Jolla, USA) using a substrate inhibition model. […] Weighted means (by standard error) of Km and IC50 values are calculated from at least three independent experiments. The Cheng-Prusoff equation for competitive inhibition (Cheng, Y. C.; Prusoff, W. H. Biochem Pharmacol 1973, 22, 3099-3108) is used to calculate dissociation constants (Ki).
(§7) Field performance of the HPPD enzyme, which is used as a herbicide tolerance trait may depend not only on its lack of sensitivity towards HPPD inhibiting herbicides but also on its activity. To assess the potential performance of a herbicide tolerance trait a tolerance index (TI) is calculated using the following formula: […]
(§8) Easy comparison and ranking of each trait is enabled by normalizing tolerance indexes on Arabidopsis wild-type HPPD.

[2] = target: T1, Hordeum HPPD (SEQ ID NO:2) (Hordeum vulgare, UniProt O48604, A164G/R146V/R147D/R148G); test: HPPD activity assay; type: biochemical; conditions: HPPD enzyme Hordeum
T1 construct: His-tag (N); made in house; host or cells: E. coli BL21 (DE3)
T1 sequence (O48604 whole entry R146V/R147D/R148G/A164G): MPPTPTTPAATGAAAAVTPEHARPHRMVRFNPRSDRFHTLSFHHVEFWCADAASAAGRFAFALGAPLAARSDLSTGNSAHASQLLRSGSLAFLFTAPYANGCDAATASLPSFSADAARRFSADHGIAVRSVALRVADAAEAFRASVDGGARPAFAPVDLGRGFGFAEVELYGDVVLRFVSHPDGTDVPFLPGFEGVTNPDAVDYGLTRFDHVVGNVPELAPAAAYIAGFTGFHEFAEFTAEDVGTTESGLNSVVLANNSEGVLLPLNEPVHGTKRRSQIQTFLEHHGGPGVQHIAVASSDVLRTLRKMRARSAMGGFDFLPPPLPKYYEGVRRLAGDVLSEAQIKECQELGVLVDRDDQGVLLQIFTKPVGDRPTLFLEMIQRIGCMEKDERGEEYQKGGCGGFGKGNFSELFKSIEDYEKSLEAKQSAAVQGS

[3] = test system: Rhodococcus HPPD2; test: HPPD activity assay; type: biochemical; conditions: HPPD enzyme Rhodococcus HPPD2
Procedure: as §1, §2, §3, §4, §5, §6, §7, §8

[4] = test system: Rhodococcus HPPD1; test: HPPD activity assay; type: biochemical; conditions: HPPD enzyme Rhodococcus HPPD1
Procedure: as §1, §2, §3, §4, §5, §6, §7, §8

[5] = test system: Lolium HPPD; test: HPPD activity assay; type: biochemical; conditions: HPPD enzyme Lolium
Procedure: as §1, §2, §3, §4, §5, §6, §7, §8

[6] = test system: Kordia HPPD; test: HPPD activity assay; type: biochemical; conditions: HPPD enzyme Kordia
Procedure: as §1, §2, §3, §4, §5, §6, §7, §8

[7] = target: T1, Hordeum HPPD (SEQ ID NO:2); test: HPPD activity assay; type: biochemical; conditions: for Normalized tolerance index (TI): Hordeum HPPD variant Wild-type (reference, SEQ ID NO: 2); for TI (tolerance index): Hordeum HPPD, not normalized
Procedure: as §1, §2, §3, §4, §5, §6, §7, §8

[8] = test system: Synechococcus HPPD; test: HPPD activity assay; type: biochemical; conditions: HPPD enzyme Synechococcus
Procedure: as §1, §2, §3, §4, §5, §6, §7, §8

[9] = test system: Picrophilus HPPD; test: HPPD activity assay; type: biochemical, Picrophilus torridus; conditions: HPPD enzyme Picrophilus
Procedure: as §1, §2, §3, §4, §5, §6, §7, §8

[10] = target: T2, Arabidopsis HPPD M335H, P336G (Arabidopsis thaliana, UniProt P93836, M335H/P336G); type: biochemical; conditions: Arabidopsis HPPD variant M335H, normalized on wild-type
T2 construct: His6 (N); made in house; host or cells: E. coli BL21 (DE3)
T2 sequence (P93836 whole entry M335H/P336G): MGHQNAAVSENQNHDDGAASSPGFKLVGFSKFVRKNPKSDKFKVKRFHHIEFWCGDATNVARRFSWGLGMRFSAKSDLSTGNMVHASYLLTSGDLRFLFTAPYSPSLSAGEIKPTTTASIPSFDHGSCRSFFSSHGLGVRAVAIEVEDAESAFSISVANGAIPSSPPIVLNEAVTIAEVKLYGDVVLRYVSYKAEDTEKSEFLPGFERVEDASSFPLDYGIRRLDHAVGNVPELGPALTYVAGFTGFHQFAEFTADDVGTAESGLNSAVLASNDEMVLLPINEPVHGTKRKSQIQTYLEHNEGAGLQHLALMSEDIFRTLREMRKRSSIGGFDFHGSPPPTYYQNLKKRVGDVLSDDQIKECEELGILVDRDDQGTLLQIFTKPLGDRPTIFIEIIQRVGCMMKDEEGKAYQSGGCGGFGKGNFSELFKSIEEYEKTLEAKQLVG
Procedure: as §1, §2, §3, §4, §5
Purified, mutant HPPD enzymes are obtained by the methods described above. Dose response and kinetic measurements are carried out using the described HPPD activity assay. Apparent michaelis constants (Km) and maximal reaction velocities (Vmax) are calculated by non-linear regression with the software GraphPad Prism 5 (GraphPad Software, La Jolla, USA) using a substrate inhibition model. […] Weighted means (by standard error) of K. and IC50 values are calculated from at least three independent experiments. The Cheng-Prusoff equation for competitive inhibition (Cheng, Y. C.; Prusoff, W. H. Biochem Pharmacol 1973, 22, 3099-3108) is used to calculate dissociation constants (Ki).
as §7, with “of the optimized HPPD enzyme,” for “of the HPPD enzyme,”
Easy comparison and ranking of each trait is enabled by normalizing tolerance indexes on the respective wild-type HPPD.

[11] = target: T3, Arabidopsis HPPD (SEQ ID NO:53) (Arabidopsis thaliana, UniProt P93836); test: HPPD activity assay (HPLC of homogentisic acid); type: biochemical; conditions: for Normalized tolerance index (TI): Arabidopsis HPPD variant Wild-type (reference, SEQ ID: 53); for TI normalized to Arabidopsis HPPD: HPPD enzyme Arabidopsis (reference); for TI (tolerance index): Arabidopsis HPPD, not normalized
T3 construct: His6 (N); made in house; host or cells: E. coli BL21 (DE3)
T3 sequence (P93836 1-445): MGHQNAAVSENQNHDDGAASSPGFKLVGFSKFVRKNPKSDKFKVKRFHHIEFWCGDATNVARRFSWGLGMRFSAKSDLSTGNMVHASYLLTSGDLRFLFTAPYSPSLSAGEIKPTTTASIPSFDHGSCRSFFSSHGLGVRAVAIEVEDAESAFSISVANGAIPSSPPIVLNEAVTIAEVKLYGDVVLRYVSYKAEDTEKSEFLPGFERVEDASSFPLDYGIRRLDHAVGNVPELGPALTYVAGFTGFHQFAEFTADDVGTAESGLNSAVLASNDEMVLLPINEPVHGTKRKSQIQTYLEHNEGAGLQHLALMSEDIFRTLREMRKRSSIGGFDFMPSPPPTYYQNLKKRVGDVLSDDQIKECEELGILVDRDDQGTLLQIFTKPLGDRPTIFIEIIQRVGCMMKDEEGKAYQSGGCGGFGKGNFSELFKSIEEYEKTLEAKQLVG
Procedure: as §1, §2, §3, §4, §5, §6, §7, §8

[12] = test system: HPPD Seq ID 69 ID406; test: HPPD activity assay; type: biochemical, Zea mays; conditions: HPPD enzyme Seq ID 69 ID406;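 note: reaction started with 4-HPP at 0.05 mM after 30 min preincubation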
Procedure: as §1, §2, §3, §4, §5, §6, §7, §8

[13] = test system: HPPD Seq ID 67 ID10; test: HPPD activity assay; type: biochemical, Zea mays; conditions: HPPD enzyme Seq ID 67 ID10;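 note: reaction started with 4-HPP at 0.05 mM after 30 min preincubation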
Procedure: as §1, §2, §3, §4, §5, §6, §7, §8

SMILES	TI normalized to Arabidopsis HPPD [1]	TI normalized to Arabidopsis HPPD [2]	TI normalized to Arabidopsis HPPD [3]	TI normalized to Arabidopsis HPPD [4]	TI normalized to Arabidopsis HPPD [5]	TI normalized to Arabidopsis HPPD [6]	Normalized tolerance index (TI) [7]	TI normalized to Arabidopsis HPPD [8]	TI normalized to Arabidopsis HPPD [9]	Normalized tolerance index (TI) [10]	Normalized tolerance index (TI) [11]	TI normalized to Arabidopsis HPPD [11]	TI normalized to Arabidopsis HPPD [12]	TI normalized to Arabidopsis HPPD [13]	pKi [7]	TI (tolerance index) [7]	TI (tolerance index) [11]	pKi [11]
CS(=O)(=O)c1ccc(C(=O)C2C(=O)CCCC2=O)c(Cl)c1COCC(F)(F)F [Inhibitor 4, 2-[2-chloro-4-methylsulfonyl-3-(2,2,2-trifluoroethoxymethyl)benzoyl]cyclohexane-1,3-dione]	3	0.1	0.5	0.6	2.6	0.1	1	0.1	0.4	0.2	1	1	5.5	26				
Cc1c(C(=O)c2cnn(C)c2O)ccc(S(C)(=O)=O)c1C1=NOCC1 [Inhibitor 1, [3-(4,5-dihydroisoxazol-3-yl)-2-methyl-4-methylsulfonyl-phenyl]-(5-hydroxy-1-methyl-pyrazol-4-yl)methanone]	1.6	3.7	19.3	18.9	1.7	3.2	1	6.7	10.4	5	1	1	15	120.8	8.10	3.5E−3	9.5E−4	
CS(=O)(=O)c1ccc(C(=O)C2C(=O)CCCC2=O)c([N+](=O)[O-])c1 [Inhibitor 2, 2-(4-methylsulfonyl-2-nitro-benzoyl)cyclohexane-1,3-dione]	3	0.9	0.3	0.3	2.6	0.1	1	2.1	0.2	0.1	1	1	5.6	22.9	7.14	3.2E−2	3.6E−2	7.44
COCCOCc1nc(C(F)(F)F)ccc1C(=O)C1=C(O)C2CCC(C2)C1=O (stereo not drawn) [Inhibitor 3, 2-hydroxy-3-[2-(2-methoxyethoxymethyl)-6-(trifluoromethyl)pyridine-3-carbonyl]bicyclo[3.2.1]oct-2-en-4-one]	2.5	0.2	1.3	1.2	2.5	0.3	1	0.0	7.8	0.3	1	1	9.9	20.1				

Reference: US12065654B2, “Plants having increased tolerance to herbicides” (BASF SE, priority 2014, dated 2024)
